Laboratory results taken from patent US11401246B2, “Triazole glycolate oxidase inhibitors” (CANTERO THERAPEUTICS, INC., priority 2018, dated 2022).

Target: T1, human glycolate oxidase (hGO) (Homo sapiens, UniProt Q9UJM8)
T1 construct: His-tag (6 histidines, pET-15b) (N); made in house; host or cells: E. coli BL21 (DE3)
T1 sequence (Q9UJM8 1-370): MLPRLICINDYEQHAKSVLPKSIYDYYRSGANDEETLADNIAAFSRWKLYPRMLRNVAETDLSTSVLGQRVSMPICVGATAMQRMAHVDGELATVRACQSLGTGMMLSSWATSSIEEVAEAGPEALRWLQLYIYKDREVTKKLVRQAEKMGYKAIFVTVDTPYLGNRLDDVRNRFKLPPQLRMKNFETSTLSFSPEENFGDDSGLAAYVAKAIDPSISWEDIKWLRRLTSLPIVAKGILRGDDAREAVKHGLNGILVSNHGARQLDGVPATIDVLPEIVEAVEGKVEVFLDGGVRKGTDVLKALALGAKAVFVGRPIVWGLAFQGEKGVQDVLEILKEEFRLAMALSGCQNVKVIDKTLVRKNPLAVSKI
Assay: In vitro inhibition of human glycolate oxidase (enzymatic assay, HRP-coupled Trinder reaction);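 further: values are IC50 potency bins despite the % Inhibition label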
Type: biochemical
Details: recombinant hGO, 40 mM glycolic acid, pH 7, read at 515 nm, 1 minute after initiation of Trinder reaction; read-out: % Inhibition
Summary of the method: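 Glyoxylate production measured indirectly: H2O2 from hGO oxidation of 40 mM glycolic acid (pH 7 phosphate, 0.1 mM EDTA) drives HRP-coupled quinoneimine dye formation, read spectrophotometrically at 1 minute. Enzyme is His-tagged human Hao1 expressed in BL21 E. coli and nickel-affinity purified.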

IC50 [µM] | Structure (SMILES)
0.1 to 0.2 | CC1(c2ccc(-c3ccc(Oc4[nH]nnc4C(=O)O)cc3)cc2)CC1 [Example 122, 5-((4′-(1-methylcyclopropyl)-[1,1′-biphenyl]-4-yl)oxy)-1H-1,2,3-triazole-4-carboxylic Acid]
0.1 to 0.2 | O=C(O)c1nn[nH]c1Oc1ccc(-c2ccc(C3CC3(F)F)cc2)cc1 (stereo not shown) [Example 123, 5-((4′-(2,2-difluorocyclopropyl)-[1,1′-biphenyl]-4-yl)oxy)-1H-1,2,3-triazole-4-carboxylic Acid]
> 0.2 | O=C(O)c1nn[nH]c1Oc1ccc(C2CCC3(CC2)CC3(F)F)cc1 (stereo not shown) [Example 126, 5-(4-(1,1-Difluorospiro[2.5]octan-6-yl)phenoxy)-1H-1,2,3-triazole-4-carboxylic acid]
0.1 to 0.2 | O=C(O)c1nn[nH]c1Oc1ccc(-c2ccc(C3CC(F)(F)C3)cc2)cc1 [Example 127, 5-((4′-(3,3-difluorocyclobutyl)-[1,1′-biphenyl]-4-yl)oxy)-1H-1,2,3-triazole-4-carboxylic Acid]
0.1 to 0.2 | Cc1cc(-c2ccc(-c3ccc(Oc4[nH]nnc4C(=O)O)cc3)cc2)ccn1 [Example 129, 5˜((4′-(2-methylpyridin-4˜yl)-[1,1′-biphenyl]-4-yl)oxy)-1H-1,2,3-triazole-4-carboxylic Acid]
> 0.2 | O=C(O)c1nn[nH]c1Oc1ccc(C2CC2(F)F)cc1 (stereo not shown) [Example 130, 5-(4-(2,2-difluorocyclopropyl)phenoxy)-1H-1,2,3-triazole-4-carboxylic Acid]
0.1 to 0.2 | O=C(O)c1nn[nH]c1Oc1ccc(C2CCC(F)(F)C2)cc1 (stereo not shown) [Example 131, 5-(4-(3,3-Difluorocyclopentyl)phenoxy)-1H-1,2,3-triazole-4-carboxylic Acid]
